The record followed here is ChEMBL document CHEMBL3871292, “Evaluation of dipeptide nitriles as inhibitors of rhodesain, a major cysteine protease of Trypanosoma brucei” (Bioorg Med Chem Lett, 2017).

The subject of data set [1] is Trypanosoma brucei. Briefly: Inhibition of Trypanosoma brucei rhodesain using Cbz-Phe-Arg-AMC as substrate at 20 uM by fluorescence-based assay.
Data set [2] can be described thus: Inhibition of Trypanosoma brucei rhodesain using Cbz-Phe-Arg-AMC as substrate by fluorescence-based assay.
Data set [3] deals with Trypanosoma brucei. Kind of data set: Inhibition of Trypanosoma brucei rhodesain using Cbz-Phe-Arg-AMC as substrate at 0.05 to 20 uM by fluorescence-based assay. As to conditions: TDE = time-dependent effect.
A short description of data set [4]: Competitive inhibition of Trypanosoma brucei rhodesain in presence of varying levels of Cbz-Phe-Arg-AMC substrate by Cheng-Prusoff equation analysis.
The nature of data set [5]: Inhibition of Trypanosoma brucei rhodesain using 10 uM of Cbz-Phe-Arg-AMC as substrate by Cheng-Prusoff equation analysis.
A short description of data set [6]: Selectivity index, ratio of Ki for human cathepsin L to Ki for competitive inhibition of Trypanosoma brucei rhodesain.
Data set [7] deals with Trypanosoma brucei brucei. Briefly: Antitrypanosomal activity against Trypanosoma brucei brucei BS449 measured after 24 hrs using ATPlite-1 reagent by cell based luciferase reporter gene assay. The class given is functional. As to conditions: BS449, 24 h. (In general: Cellular ATP, detected with luciferase, serves as a proxy for viable cell number.)
Data set [8] deals with Trypanosoma brucei brucei. Briefly: Antitrypanosomal activity against Trypanosoma brucei brucei Trypanosoma brucei brucei BS449 measured after 48 hrs using ATPlite-1 reagent by cell based luciferase reporter gene assay. The data set is classed as functional. As to conditions: BS449, 48 h.
The test system of data set [9] is Trypanosoma brucei brucei. Briefly: Antitrypanosomal activity against Trypanosoma brucei brucei BS449 measured after 72 hrs using ATPlite-1 reagent by cell based luciferase reporter gene assay. The data set is classed as functional.
Data set [10] can be described thus: Stability of the compound in HMI-9 medium measured after 48 hrs. The data set is classed as physicochemical.
Data set [11] can be described thus: Solubility of the compound in HMI-9 medium. The data set is classed as physicochemical.
Data set [12] is described as follows: Solubility of the compound in PBS. The data set is classed as physicochemical. As to conditions: buffer.
Another data set concerns the target Procathepsin L (Homo sapiens, UniProt P07711). Briefly: Inhibition of human cathepsin L using Z-Phe-Arg-pNA as substrate measured after 10 to 80 mins by spectrophotometric method.
Setting [13] is: Trypanosoma brucei, BS449, 72 h, read-out: EC50.
[14] abbreviates: Trypanosoma brucei, BS449, 72 h, read-out: pEC50 (converted).

Where only a bound is given, the exact number is not on record here.

Procathepsin L, sequence (P07711 whole entry): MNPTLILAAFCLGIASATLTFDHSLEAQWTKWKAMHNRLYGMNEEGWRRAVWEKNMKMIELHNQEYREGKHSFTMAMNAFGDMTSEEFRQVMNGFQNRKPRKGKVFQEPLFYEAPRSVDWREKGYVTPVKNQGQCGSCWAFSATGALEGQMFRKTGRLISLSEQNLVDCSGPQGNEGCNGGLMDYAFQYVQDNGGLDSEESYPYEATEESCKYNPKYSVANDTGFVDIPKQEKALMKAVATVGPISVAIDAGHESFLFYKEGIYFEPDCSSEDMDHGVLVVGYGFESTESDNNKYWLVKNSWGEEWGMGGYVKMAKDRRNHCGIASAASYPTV

Consider `CC(C)CS(=O)(=O)CC(NC(=O)c1cc2ccsc2s1)C(=O)NCC#N` (racemic), for which the inhibition in the data set with Trypanosoma brucei [1] turned out to be 25%.
Turning to `CC(C)(C)OC(=O)N[C@@H](Cc1c[nH]c2ccccc12)C(=O)NCC#N`, the inhibition in the data set with Trypanosoma brucei [1] was over 50%. This compound also showed a Ki in data set [2] of 125 nM.
In the same order, the values of `CC(C)(C)OC(=O)N[C@H](CC(=O)NC#N)Cc1ccccc1` are over 50% and 1270 nM.
In the same order, the values of `CCN(CC)c1ccc2cc(C(=O)NC3(C(=O)NCC#N)CCCCC3)c(=O)oc2c1` are over 50% and 790 nM.
The matching figures for `N#CCNC(=O)[C@H](Cc1ccc(O)cc1)NC(=O)OCc1ccccc1`: over 50% and 44.6 nM.
In the case of `N#CCNC(=O)[C@H](Cc1cccc(Br)c1)NC(=O)c1ccc(-c2ccccc2)cc1`, the inhibition with Trypanosoma brucei [1] was over 50%; with Trypanosoma brucei [3] it was “Tde”. Moreover, the results for the inhibition constant (Ki) in data set [4] and in data set [5] were 2.6 nM and 9.2 nM, respectively. Also, in data set [6], the Ratio Ki is 200.
`CC(C)(C)OC(=O)N[C@@H](Cc1cccc(F)c1)C(=O)NCC#N` yielded an inhibition with Trypanosoma brucei [1] of over 50%. Moreover, the Ki in data set [2] is 73.8 nM.
In the same order, the values of `CC(C)CS(=O)(=O)CC(NC(=O)c1cc(-c2ccccc2)cs1)C(=O)NCC#N` (racemic) are over 50% and 820 nM.
In the same order, the values of `COc1ccc(C[C@H](NC(=O)OCc2ccccc2)C(=O)NCC#N)cc1` are over 50% and 26 nM.
In the data set with Trypanosoma brucei [1], `CC(C)CS(=O)(=O)CC(NC(=O)c1cc2ccccc2s1)C(=O)NCC#N` (racemic) came in with an inhibition of 15%.
Still for that read-out and setting: next, `CC(C)CS(=O)(=O)CC(NC(=O)c1ccc(-c2ccccc2)s1)C(=O)NCC#N` (racemic): 37%.
For the compound `CC(C)(C)OC(=O)N[C@@H](Cc1ccc(Br)cc1)C(=O)NCC#N`, the inhibition with Trypanosoma brucei [1] is over 50%; in the data set on Trypanosoma brucei [3] it was “Tde”. Moreover, in [2], the Ki is 12.3 nM. Besides, the EC50 in data set [7] (read-out: EC50) was 43000 nM; in data set [8] (read-out: EC50), 104000 nM; in data set [9] (setting [13]), 129000 nM; in [9] (setting [14]), 130000 nM.
`CCCC[C@H](NC(=O)OC(C)(C)C)C(=O)NCC#N` displayed an inhibition with Trypanosoma brucei [1] of over 50%. The Ki in data set [2] turned out to be 750 nM.
In the same order, the values of `CC(C)(C)OC(=O)N[C@@H](CC1CCCCC1)C(=O)NCC#N` are over 50% and 68 nM.
The matching figures for `CN(C)c1cccc2c(S(=O)(=O)N[C@@H](Cc3ccccc3)C(=O)NCC#N)cccc12`: over 50% and 413 nM.
In the same order, the values of `CC(C)(C)OC(=O)N[C@H](C(=O)NCC#N)c1ccccc1` are over 50% and 795 nM.
Turning to `CC(C)(C)OC(=O)N[C@@H](Cc1ccsc1)C(=O)NCC#N`, the inhibition with Trypanosoma brucei [1] was over 50%. In data set [2], the inhibitory constant (Ki) amounted to 387 nM.
In the case of `CN(C)c1cccc2c(S(=O)(=O)NC3(C(=O)NCC#N)CCCCC3)cccc12`, in the data set on Trypanosoma brucei [1], the inhibition amounted to 11%.
For the compound `N#CCNC(=O)[C@H](Cc1ccccc1)NC(=O)OCc1ccccc1`, the inhibition in the data set with Trypanosoma brucei [1] is over 50%. Moreover, affinity in data set [2] was put at a Ki of 42 nM. The EC50 is 63000 nM in [7] (read-out: EC50), 79000 nM in [8] (read-out: EC50) and “Nd(Unstable)” in data set [9]. The Stability result in data set [10] was “Unstable”.
`CC(C)(C)OC(=O)N[C@@H](Cc1ccco1)C(=O)NCC#N`: the inhibition in the data set with Trypanosoma brucei [1] was over 50%. Besides, the affinity in [2], expressed as Ki, was 615 nM.
On to `CC(C)(C)OC(=O)N[C@@H](Cc1ccccc1F)C(=O)NCC#N`, for which the inhibition in the data set with Trypanosoma brucei [1] is over 50%. The compound further displayed an inhibitory constant (Ki) in [2] of 49.2 nM. The EC50 is 77000 nM in data set [7] (read-out: EC50), 70000 nM in data set [8] (read-out: EC50) and “Nd(Unstable)” in data set [9]. In [10], the Stability result is recorded as “Unstable”.
The compound `CC[C@H](NC(=O)OC(C)(C)C)C(=O)NCC#N` came in with an inhibition in the data set with Trypanosoma brucei [1] of 10%.
`CC(C)(C)OC(=O)N[C@@H](COCc1ccccc1)C(=O)NCC#N`: in the data set with Trypanosoma brucei [1], the inhibition was over 50%. The same compound displayed a Ki in data set [2] of 950 nM.
In the same order, the values of `CC(C)(C)OC(=O)N[C@@H](Cc1cccc(Br)c1)C(=O)NCC#N` are over 50% and 27.6 nM.
Take `CC(C)(C)OC(=O)N[C@@H](Cc1ccccc1)C(=O)NCC#N`: in the data set on Trypanosoma brucei [1], the inhibition is over 50%. In addition, in data set [2], the Ki came out at 55 nM.
With `CC(C)C[C@H](NC(=O)c1ccc(-c2noc(-c3cccs3)n2)cc1)C(=O)NCC#N`, the inhibition in the data set with Trypanosoma brucei [1] was over 50%; with Trypanosoma brucei [3], “Tde”. The inhibition constant (Ki) in data set [4] worked out at 5.3 nM; in data set [5], 9.2 nM. For the same compound, in [6], the Ratio Ki is 200. The EC50 in data set [7] (read-out: EC50) was 8000 nM; in [8] (read-out: EC50), 10000 nM; in data set [9] (setting [13]), 6000 nM; in data set [9] (setting [14]) it was 6190 nM. The solubility result in data set [11] and in data set [12] was “Insoluble” throughout.
In the data set on Trypanosoma brucei [1], `CC(C)(C)OC(=O)N[C@@H](Cc1csc2ccccc12)C(=O)NCC#N` came in with an inhibition of over 50%. The compound further showed an inhibitory constant (Ki) in [2] of 90 nM.
`CC(C)CS(=O)(=O)CC(NC(=O)c1ccc(-c2ccsc2)s1)C(=O)NCC#N` (racemic) displayed an inhibition in the data set with Trypanosoma brucei [1] of 29%.
With `CC[C@H](C)[C@H](NC(=O)OC(C)(C)C)C(=O)NCC#N`, the inhibition with Trypanosoma brucei [1] is over 50%. The same compound came in with a Ki in data set [2] of 1470 nM.
In the same order, the values of `CC(C)C[C@H](NC(=O)Nc1ccc(-c2noc(-c3cccs3)n2)cc1)C(=O)NCC#N` are over 50% and 172 nM.
`CC(C)(C)OC(=O)N[C@@H](CC1CC1)C(=O)NCC#N` returned an inhibition in the data set on Trypanosoma brucei [1] of 30%.
For `N#CCNC(=O)C1(NC(=O)OCc2ccccc2)CCCCC1`, the inhibition in the data set on Trypanosoma brucei [1] was found to be 22%. In addition, the Ki on Procathepsin L is over 5000 nM.
Regarding `CC(C)(C)OC(=O)N[C@@H](Cc1ccc(-c2ccccc2)cc1)C(=O)NCC#N`, the inhibition in the data set with Trypanosoma brucei [1] is over 50%. In addition, the Ki in data set [2] worked out at 52 nM.
Consider `CC(C)CS(=O)(=O)CC(NC(=O)c1ccc(-c2cccs2)cc1)C(=O)NCC#N` (racemic), for which the inhibition in the data set with Trypanosoma brucei [1] came out at 25%.
Consider `CC(C)CS(=O)(=O)CC(NC(=O)c1ccc(-c2cccs2)s1)C(=O)NCC#N` (racemic), for which the inhibition in the data set with Trypanosoma brucei [1] is over 50%. For the same compound, in data set [2], the inhibitory constant (Ki) came to 900 nM.
For `CC(C)(C)OC(=O)N[C@@H](Cc1ccc(F)cc1)C(=O)NCC#N`, the inhibition in the data set on Trypanosoma brucei [1] was over 50%. Besides, in [2], affinity was put at a Ki of 43.8 nM. The EC50 was 169000 nM in data set [7] (read-out: EC50), 105000 nM in data set [8] (read-out: EC50), 217000 nM in data set [9] (setting [13]) and 217000 nM in data set [9] (setting [14]).
`CC(C)(C)OC(=O)N[C@@H](Cc1ccc(O)cc1)C(=O)NCC#N`: the inhibition in the data set on Trypanosoma brucei [1] is over 50%. The same compound showed a Ki in [2] of 47 nM.
For `N=C(NCCCCCCNC(=N)NC(=N)Nc1ccc(Cl)cc1)NC(=N)Nc1ccc(Cl)cc1` [CHLORHEXIDINE], the EC50 was 440 nM in data set [7] (read-out: EC50); 441 nM in [7] (read-out: pEC50 (converted)); 321 nM in data set [8] (read-out: EC50); 321 nM in data set [8] (read-out: pEC50 (converted)); 349 nM in data set [9] (setting [13]); 350 nM in [9] (setting [14]).
In the data set on Trypanosoma brucei [1], `CC(C)CS(=O)(=O)CC(NC(=O)c1cccs1)C(=O)NCC#N` (racemic) returned an inhibition of 9%.
As to `N#CCNC(=O)C1(NC(=O)c2ccc(-c3noc(-c4cccs4)n3)cc2)CCCCC1`, the inhibition in the data set with Trypanosoma brucei [1] was over 50%. Moreover, the figures for the inhibition constant (Ki) (in data set [2]; on Procathepsin L) were 1540 nM and over 5000 nM, respectively.
In turn, `CC(C)CS(=O)(=O)CC(NC(=O)c1ccc(-c2nnn[nH]2)s1)C(=O)NCC#N` (racemic) returned an inhibition in the data set on Trypanosoma brucei [1] of 16%.
Turning to `CSCC[C@H](NC(=O)OC(C)(C)C)C(=O)NCC#N`, the inhibition in the data set with Trypanosoma brucei [1] is over 50%. In [2], this compound registered an inhibition constant Ki of 1170 nM.
The compound `CC(C)[C@H](NC(=O)OC(C)(C)C)C(=O)NCC#N` came in with an inhibition in the data set with Trypanosoma brucei [1] of over 50%. The compound also came in with a Ki in data set [2] of 1490 nM.

As usually defined, the inhibition is the relative decrease from the control value, in per cent. Usually Ki stands for the equilibrium dissociation constant of an inhibitor or competing ligand from its target.
